In the experiment the target is motor domain of human KSP (Eg 5, KNSL1) (Homo sapiens (Human), UniProt P52732). The experiment in a line: Assay for determining KSP activity (microtubule-stimulated ATPase, Biomol Green phosphate detection). Format: biochemical. The settings on record: KSP motor domain 3 nM, bovine brain microtubules 50 μg/mL, 2 hours at RT, absorbance at 650 nm. The protocol: This example provides a representative in vitro assay for determining KSP activity in vitro. Purified microtubules obtained from bovine brain were purchased from Cytoskeleton Inc. (Denver, Colo., USA). The motor domain of human KSP (Eg 5, KNSL1) was cloned, expressed, and purified to greater than 95% homogeneity. Biomol Green was purchased from BIOMOL International L.P. (Plymouth Meeting, Pa., USA). The microtubules were rapidly thawed at 37° C. for 10 minutes before making dilution. Microtubules and KSP motor protein (i.e., the KSP motor domain) were diluted in assay buffer (20 mM Tris-HCl (pH 7.5), 1 mM MgCl2, 10 mM DTT and 0.125% BSA) to a final concentration of 50 μg/mL microtubules and 3 nM KSP.
To each well of the testing plate (96-well half area plate) containing 1.25 μL of inhibitor or test compound in DMSO (or DMSO only in the case of controls) were added 25 μL of ATP solution (ATP diluted to a concentration of 250 μM in assay buffer) and 25 μL of the above-described microtubule/KSP solution. The plates were incubated at RT for 2 hours. Following incubation, 65 μL of Biomol Green (a malachite green-based dye that detects the release of inorganic phosphate) with 0.015% Tween 20 was added to each well. The plates were incubated for an additional 15-20 minutes then the absorbance at 650 nm was determined using a Molecular Devices Spectrophotometer. The amount of absorbance at 650 nm corresponded to the amount of KSP activity in the samples. The IC50 of each inhibitor or test compound was then determined based on the decrease in absorbance at 650 nm at each concentration, via nonlinear regression using either XLFit for Excel or Prism data analysis software by GraphPad Software Inc.

Where [1] appears, read: read-out: Biological Activity (IC50).

Structures are written as SMILES. Like-named read-outs stand apart in the source and are kept apart here.

motor domain of human KSP (Eg 5, KNSL1), sequence (P52732 18-359): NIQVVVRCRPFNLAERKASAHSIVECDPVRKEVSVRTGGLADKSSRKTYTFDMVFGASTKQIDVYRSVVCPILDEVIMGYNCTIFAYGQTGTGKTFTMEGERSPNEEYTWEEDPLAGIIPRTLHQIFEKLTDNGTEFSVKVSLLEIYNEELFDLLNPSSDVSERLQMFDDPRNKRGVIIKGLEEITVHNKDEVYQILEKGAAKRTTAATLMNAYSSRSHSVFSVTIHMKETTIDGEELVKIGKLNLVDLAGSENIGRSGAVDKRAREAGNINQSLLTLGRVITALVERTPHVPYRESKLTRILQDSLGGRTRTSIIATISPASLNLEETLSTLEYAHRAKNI

Turning to `CC(C)(C)[C@H](c1nc(-c2cc(F)ccc2F)nn1Cc1ccccc1)N(CC1CNC[C@@H]1F)C(=O)C1CCCO1` (stereo in doubt) [Compound 1, (S)—N—((R)-1-(1-benzyl-3-(2,5-difluorophenyl)-1H-1,2,4-triazol-5-yl)-2,2-dimethylpropyl)-N-(((3R,4R)-4-fluoropyrrolidin-3-yl)methyl)tetrahydrofuran-2-carboxamide], the IC50 (in general, the midpoint of a concentration-inhibition curve) under setting [1] is 960 pM.

In the case of `C[C@@H]1CN(C(=O)N(C[C@@H]2CNC[C@@H]2F)[C@@H](c2nc(-c3cc(F)ccc3F)nn2Cc2ccccc2)C(C)(C)C)C[C@H](C)O1` (stereo in doubt) [Compound 2, N—((R)-1-(1-benzyl-3-(2,5-difluorophenyl)-1H-1,2,4-triazol-5-yl)-2,2-dimethylpropyl)-N-(((3R,4R)-4-fluoropyrrolidin-3-yl)methyl)-2,6-dimethylmorpholine-4-carboxamide], the IC50 under setting [1] was 830 pM.

With `C[C@@H]1CN(C(=O)N(C[C@@H]2CNC[C@@H]2F)[C@@H](c2nc(-c3cc(F)ccc3F)nn2Cc2cccc(F)c2)C(C)(C)C)C[C@H](C)O1` (stereo in doubt) [Compound 3, N—((R)-1-(3-(2,5-difluorophenyl)-1-(3-fluorobenzyl)-1H-1,2,4-triazol-5-yl)-2,2-dimethylpropyl)-N-(((3R,4R)-4-fluoropyrrolidin-3-yl)methyl)-2,6-dimethylmorpholine-4-carboxamide], the IC50 under setting [1] came out at 740 pM.

Turning to `C[C@H](O)C(=O)N(CC1CNC[C@@H]1F)[C@@H](c1nc(-c2cc(F)ccc2F)nn1Cc1ccccc1)C(C)(C)C` (stereo in doubt) [Compound 4, (S)—N—((R)-1-(1-benzyl-3-(2,5-difluorophenyl)-1H-1,2,4-triazol-5-yl)-2,2-dimethylpropyl)-N-(((3R,4R)-4-fluoropyrrolidin-3-yl)methyl)-2-hydroxypropanamide], the IC50 under setting [1] was 600 pM.

For the molecule `CC(C)(C)C(c1nc(-c2cc(F)ccc2F)nn1Cc1cccc(F)c1)N(CC1CNC[C@@H]1F)C(=O)C1CCCO1` (stereo in doubt) [Compound 5, (S)—N—((R)-1-(3-(2,5-difluorophenyl)-1-(3-fluorobenzyl)-1H-1,2,4-triazol-5-yl)-2,2-dimethylpropyl)-N-(((3R,4R)-4-fluoropyrrolidin-3-yl)methyl)tetrahydrofuran-2-carboxamide], under setting [1], the IC50 worked out at 1460 pM.

For the molecule `C[C@H](O)C(=O)N(CC1CNC[C@@H]1F)[C@@H](c1nc(-c2cc(F)ccc2F)nn1Cc1cccc(F)c1)C(C)(C)C` (stereo in doubt) [Compound 6, (S)—N—((R)-1-(3-(2,5-difluorophenyl)-1-(3-fluorobenzyl)-1H-1,2,4-triazol-5-yl)-2,2-dimethylpropyl)-N-(((3R,4R)-4-fluoropyrrolidin-3-yl)methyl)-2-hydroxypropanamide], the IC50 under setting [1] amounted to 830 pM.

Consider `COC(C)(C)[C@H](c1nc(-c2cc(F)ccc2F)nn1Cc1cccc(F)c1)N(CC[C@H](N)CF)C(=O)[C@@H]1CCCO1` [Compound 7], for which the IC50 (read-out: KSP IC50) was found to be 1230 pM.

Regarding `COC(C)(C)[C@H](c1nc(-c2cc(F)ccc2F)nn1Cc1cccc(F)c1)N(CC[C@H](N)CF)C(=O)[C@H](C)O` [Compound 8], where the note is “read-out: KSP IC50”, the IC50 stood at 1490 pM.

In the case of `CCN1C[C@@H](CN(C(=O)[C@@H]2CCCO2)[C@@H](c2nc(-c3cc(F)ccc3F)nn2Cc2cccc(F)c2)C(C)(C)OC)[C@@H](F)C1` [Compound 9], under “read-out: KSP IC50”, the IC50 was 49400 pM.

On to `COC(C)(C)[C@H](c1nc(-c2cc(F)ccc2F)nn1Cc1cccc(F)c1)N(C[C@@H]1CNC[C@@H]1F)C(=O)[C@@H]1CCCO1` [Compound 10], for which the IC50 (read-out: KSP IC50) came out at 900 pM.

On to `COC(C)(C)[C@H](c1nc(-c2cc(F)ccc2F)nn1Cc1ccccc1)N(CC[C@H](N)CF)C(=O)[C@@H]1CCCO1` [Compound 11], for which the IC50 (read-out: KSP IC50) stood at 1400 pM.

`COC(C)(C)[C@H](c1nc(-c2cc(F)ccc2F)nn1Cc1cccc(F)c1)N(C[C@@H]1CNC[C@@H]1F)C(=O)[C@H](C)O` [Compound 12]: for the setting “read-out: KSP IC50”, the IC50 came out at 870 pM.

With `COC(C)(C)[C@H](c1nc(-c2cc(F)ccc2F)nn1Cc1ccccc1)N(C[C@@H]1CNC[C@@H]1F)C(=O)[C@@H]1CCCO1` [Compound 13], under “read-out: KSP IC50”, the IC50 came to 690 pM.

`COC(C)(C)[C@H](c1nc(-c2cc(F)ccc2F)nn1Cc1ccccc1)N(CC[C@H](N)CF)C(=O)[C@H](C)O` [Compound 14]: where the note is “read-out: KSP IC50”, the IC50 was determined as 2340 pM.

The values are drawn from patent US8546434B2, “Triazole compounds as KSP inhibitors” (Novartis AG, priority 2010, dated 2013).
